Patent US10583103B2, “Method of treating heart failure with preserved ejection fraction with probenecid” (University Of Cincinnati, priority 2013, dated 2020)
Like-named read-outs stand apart in the source and are kept apart here.

Tests used:
[1] = tested on: thoracic aortae of TRPV2−/− mice; test: Vascular smooth muscle reactivity in isolated aorta (DMT myograph), TRPV2 knockout; design: species or system mouse; developed tension: dose or concentration left out as unconfirmed; details: for EC50: Mus musculus, phenylephrine pre-contracted, read-out: EC50 for the relaxing effect
[2] = tested on: thoracic aortae of wild type mice; test: Vascular smooth muscle reactivity in isolated aorta (DMT myograph), wild type; design: species or system mouse; details: for EC50: Mus musculus, phenylephrine pre-contracted, read-out: EC50 for the relaxing effect
isolated aortae = test: Vasoconstrictor effect of probenecid in isolated aortae (cumulative concentration-force relationship); design: species or system mouse
[3] = tested on: isolated WT cardiomyocytes; details: putatively through TRPV2 stimulation; cited from earlier work
WT mice = test: Invasive cardiac hemodynamics in intact anesthetized mice (LV pressure development), wild type; format: in vivo, mouse
Experimental: (§1) All animal procedures were performed with the approval of the Institutional Animal Care and Use Committee (IACUC) of the University of Cincinnati and in accordance with the Guide for the Care and Use of Laboratory Animals (NIH, revised 1996). All wild type (WT) mice (B6129SF2/J F2 and C57BL6J, Jackson laboratories) and TRPV2^−/− mice (breeding pairs provided by Dr. M. Caterina, John's Hopkins, Baltimore, Md.) were males at 12-16 weeks of age (REF). Prior to experiments, mice were maintained on normal rodent chow and water ad libitum, and on a 14 hr/10 hr light/dark cycle (6 AM to 8 PM).
Measurements of left ventricular performance and regional blood flow were performed in separate groups of WT and TRPV2^−/− mice as previously described {Lorenz, 2008#1}. Briefly, mice were anesthetized with an intraperitoneal injection of ketamine (50 μg/gBW) and inactin (thiobutabarbital, 100 μg/gBW, Sigma, MA). A tracheotomy was performed (PE-90), and body temperature was monitored and maintained with a feedback-controlled heating table. The right femoral artery was cannulated with fluid-filled polyethylene tubing for measurement of blood pressure and connected to a low compliance pressure transducer (COBE Cardiovascular, Arvada, Colo.). The right femoral vein was cannulated for delivery of drugs. A high fidelity, 1.2F Scisense pressure catheter (Scisense, London, ON, Canada) was inserted into the right carotid artery and advanced into the left ventricle to monitor cardiac performance. ECG leads were placed on the right and left arms, and left leg and connected to a BIOAmp (ADInstruments, Colorado Springs, Colo.). For carotid blood flow measurements, the left carotid artery was isolated and fitted with a 0.5-PSB perivascular flow probe connected to a TS420 flow meter (Transonic Systems, Ithaca, N.Y.). Pressure, flow, and ECG signals were recorded and analyzed using a PowerLab system (ADInstruments). Hemodynamic measurements were taken at the basal state and after the administration of 30 and 100 μg/g doses of probenecid i.v., with 5 minutes between each dose (100 μg/μl delivered as 0.3 and 1.0 μl/gBW bolus). Measurements were taken from the final 30-40 seconds of each dosage period. Maximum dP/dt (dP/dtmax) and dP/dt at 40 mmHg of developed pressure (dP/dt40) were calculated from the first derivative of the pressure waveforms. Cerebral vascular resistance (CVR) was calculated from recorded channels of mean arterial pressure and mean cerebral blood flow (CVR=MAP/CBF).
Statistical analysis was performed by analysis of variance (ANOVA) using either a single factor within-subjects design, or a two- or three-factor mixed design with repeated measures as appropriate. Individual contrasts were used to compare group effects and interactions when needed, and the Tukey post-hoc test was used to compare individual means where appropriate (SigmaStat v3.5, Point Richmond, Calif.). Data are presented as means±S.E.M., and differences were regarded as significant at P<0.05.

TRPV2 = target: T1, TRPV2 (Homo sapiens, UniProt Q9Y5S1); details: cited from earlier work
T1 sequence (Q9Y5S1 1-764): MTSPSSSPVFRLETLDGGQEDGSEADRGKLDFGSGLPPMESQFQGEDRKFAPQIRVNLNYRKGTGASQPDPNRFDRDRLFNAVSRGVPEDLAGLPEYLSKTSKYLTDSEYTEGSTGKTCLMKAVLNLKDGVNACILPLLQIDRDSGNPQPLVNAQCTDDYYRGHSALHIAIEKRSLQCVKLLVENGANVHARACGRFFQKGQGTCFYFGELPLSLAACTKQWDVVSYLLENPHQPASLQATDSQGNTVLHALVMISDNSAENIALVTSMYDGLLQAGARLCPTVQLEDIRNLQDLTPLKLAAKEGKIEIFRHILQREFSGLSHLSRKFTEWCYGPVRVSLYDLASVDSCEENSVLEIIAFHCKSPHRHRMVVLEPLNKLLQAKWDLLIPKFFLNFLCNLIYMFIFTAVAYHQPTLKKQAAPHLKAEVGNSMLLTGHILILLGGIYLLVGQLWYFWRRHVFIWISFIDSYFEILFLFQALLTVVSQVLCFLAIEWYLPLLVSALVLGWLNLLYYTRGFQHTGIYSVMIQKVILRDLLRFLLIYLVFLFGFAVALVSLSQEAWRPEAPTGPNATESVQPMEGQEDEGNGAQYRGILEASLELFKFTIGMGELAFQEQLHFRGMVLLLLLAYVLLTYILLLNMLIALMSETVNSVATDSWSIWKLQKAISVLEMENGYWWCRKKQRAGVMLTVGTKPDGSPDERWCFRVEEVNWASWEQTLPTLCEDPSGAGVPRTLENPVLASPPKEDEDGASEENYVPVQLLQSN

TRPV2−/− mice = test: Invasive cardiac hemodynamics in intact anesthetized mice (LV pressure development), TRPV2 knockout; format: in vivo, mouse; details: probenecid 30 and 100 μg/g i.v. bolus
Experimental: as §1
Measurements of left ventricular performance and regional blood flow were performed in separate groups of WT and TRPV2^−/− mice as previously described {Lorenz, 2008#1}. […] A tracheotomy was performed (PE-90), and body temperature was monitored and maintained with a feedback-controlled heating table. […] Pressure, flow, and ECG signals were recorded and analyzed using a PowerLab system (ADInstruments). […] Maximum dP/dt (dP/dtmax) and dP/dt at 40 mmHg of developed pressure (dP/dt40) were calculated from the first derivative of the pressure waveforms. Cerebral vascular resistance (CVR) was calculated from recorded channels of mean arterial pressure and mean cerebral blood flow (CVR=MAP/CBF). […]

[4] = endothelium-denuded (−E), pre-contracted with 3 mM phenylephrine

With `CNC[C@H](O)c1cccc(O)c1` [phenylephrine] the “maximal developed tension in response to phenylephrine” value (“maximal developed tension in response” for short) ([1]; endothelium-denuded (−E), n=8) was 6.07±0.55 mN, the “maximal developed tension in response” value ([1]; intact endothelium (+E)) was 1.75±0.25 mN and the “maximal developed tension in response” value ([2]; endothelium-denuded (−E), n=8) was 5.99±0.74 mN. For the same compound, the “maximal developed tension in response” value ([2]; intact endothelium (+E)) was 1.45±0.12 mN.
For `CCCN(CCC)S(=O)(=O)c1ccc(C(=O)O)cc1` [probenecid], the vasoactive effect (isolated aortae; low and high doses, even in deendothelialized vessels (discussion)) is listed as “no significant vasoactive effect”, the “vasoconstrictor effect (force production)” value (isolated aortae; with or without intact endothelium, concentrations as high as 10 mM) is listed as “no evidence was found of increased force production” and the “cytosolic Ca2+ concentrations and Ca2+ sparks” value [3] is listed as “increases cytosolic Ca^2+ concentrations and increased Ca^2+ sparks”. For the same compound, the EC50 ([1]; intact endothelium (+E)) was 520 ± 110 µM, the EC50 ([1]; without endothelium (−E)) was 4590 ± 520 µM and the “dilatory response, concentration threshold” value [1, 4] was “no significant dilatory response until a concentration of 1 mM”. The developed tension ([1]; endothelium-denuded (−E), pre-contracted with phenylephrine) was “about 25 % of maximum”, the lusitropy (WT mice; WT mice, low (30 mg/kg) and high (100 mg/kg) doses) was “increased lusitropy” and the “contractile function (LV dP/dtmax, dP/dt40)” value (WT mice; WT mice, probenecid 30 and 100 μg/g i.v. bolus) was “robust stimulation of contractile function”. For the same compound, the “time to maximal effect on LV dP/dt” value (WT mice; after i.v. bolus administration) was “maximal within one minute”, the “duration of stable effect on LV dP/dt” value (WT mice; after i.v. bolus administration, at the time of reported measurement) was “at least 5 minutes” and the “cardiac relaxation and diastolic function” value (WT mice; rodents, summary statement) was “improved cardiac relaxation and improved diastolic function”. The TRPV2 agonist activity (TRPV2) was “selective agonist of TRPV2”, the EC50 ([2]; intact endothelium (+E)) was 670 ± 210 µM and the EC50 ([2]; without endothelium (−E)) was 4560 ± 340 µM. The “dilatory response, concentration threshold” value [2, 4] was “no significant dilatory response until a concentration of 1 mM”, the “developed tension at 10 mM probenecid” value ([2]; endothelium-denuded (−E), pre-contracted with phenylephrine, 10 mM) was “about 25 % of maximum” and the “contractile function (LV dP/dtmax, dP/dt40), effect relative to WT” value (TRPV2−/− mice) was “markedly attenuated”.
